Laboratory results from patent US20090123581A1, “COLLAGEN CROSS-LINKING AGENTS ON DENTAL RESTORATIVE TREATMENT AND PREVENTIVE DENTISTRY” (THE BOARD OF TRUSTEES OF THE UNIVERSITY OF ILLINOIS, priority 2006, published 2009).

Tests used:
[1] = Microtensile bond strength of adhesive restoration to sound dentin (Example 2); design: species or system human; conditions: 5% glutaraldehyde for 5 minutes, versus control (p=0.2395)
Protocol: (§1) Effect of an exogenous collagen cross-linking agent on dentin bonding: In order to analyze the contribution of exogenous collagen cross-linking to sound and caries-affected dentin bonding, demineralized dentin surfaces were treated with 5% glutaraldehyde and the restored specimens were subjected to microtensile bond strength testing.
(§2) Specimen preparation: Six human molars stored frozen (−20° C.) for less then one month were used. The teeth presented occlusal caries in which enamel was visually intact. The teeth were thawed, cleaned of adhering soft tissues, and the occlusal surfaces were ground flat with #320 and #600 grit Silicon Carbide (Sic) papers under running water to remove the enamel and expose flat middle dentin, respectively. […]
(§3) Microtensile bond test (MTB): After 24 hrs in water at 37° C., the teeth were sectioned into 0.7±0.2 mm thick slabs, and the interfaces trimmed to an hourglass shape using a fine diamond bur to produce a cross-sectional area of 1 mm^2. The thickness of the slabs and the width of the trimmed surface were measured using a digital caliper (Fisher Scientific, New Jersey, N.J.) and specimens in sound and caries-affected dentin were obtained. […] MPa were determined by dividing the fracture load by the cross-sectional area of the interface.

[2] = Microtensile bond strength of adhesive restoration to caries-affected dentin (Example 2); design: species or system human; conditions: caries-affected demineralized dentin; 5% glutaraldehyde for 5 minutes; versus control
Protocol: as §1, §2, §3

[3] = Ultimate tensile strength (UTS) of demineralized dentin after cross-linker treatment (Example 1); design: species or system human; conditions: for Ultimate tensile strength, mean: pH 7.4
Text: Fixation Processes: Ten sound freshly extracted human molars were used in this study. The teeth were thawed, cleaned of adhering soft tissues, and the occlusal surfaces were ground flat with #320 grit Silicon Carbide paper under running water to remove part of the enamel. Flattening of the occlusal surface by removal of the cusps enables accurate sectioning of samples in beam shape. Teeth were sectioned into 0.5±0.1 by 0.5±0.1 mm thick beams (n=20 beams per tooth) with a slow speed diamond wafering blade (Buehler-Series 15LC Diamond, Lake Bluff, Ill., USA) under constant water coolant (FIG. 1A).
The slabs were randomly divided into two groups: 1) undemineralized dentin and 2) demineralized dentin (FIG. 1A). In Group 2, dentin beams were immersed in 10% phosphoric acid solution (Fisher Scientific, New Jersey, N.J.) for a period of 5 hours. X-rays were taken from the specimens to verify complete tissue demineralization. Specimens were thoroughly rinsed with distilled water for 10 minutes to remove any residue of the phosphoric acid.
Specimens from groups 1 and 2 were subdivided according to the dentin treatment (FIG. 1B). In Treatment A, specimens were immersed in PBS solution (pH: 7.4) as a control. In Treatment B, specimens were immersed in 0.5% Proanthocyanidin (MegaNatural—Polyphenolics Ind.) PBS solution (PA) at a pH of 7.4. In Treatment C, specimens were immersed in 0.625% Genipin (Wako Pure Chemical Ind.) PBS solution (GE) at a pH of 7.4. In Treatment D, specimens were immersed in 5% glutaraldehyde solution (GD) (Fisher Scientific, New Jersey, N.J.) at a pH of 7.4. Specimens were kept in their respective solutions for 4 and 40 hours at room temperature. After the incubation periods, specimens were thoroughly rinsed with distilled and deionized water to remove any remains of cross-linking agents and buffer.
UTS testing: For UTS evaluation, the specimens were glued with a cyanoacrylate adhesive (Zapit—Dental Ventures of America Inc., Corona, Calif.) to a Ciucchi's jig, which was mounted on a universal testing machine (EZ Test, Shimazu Co., Kyoto, Japan) and subjected to microtensile testing at a crosshead speed of 1 mm/min (FIG. 1C). Means and standard deviations were calculated and expressed in microtensile bond strengths (MPa). Statistical analysis was performed using a two-way ANOVA and Fisher's PLSD tests (p<0.05).

[4] = UTS of demineralized crown dentin tested parallel and perpendicular to dentinal tubules (Example 4); conditions: 1 hour
Protocol: Specific synthetic and natural chemicals may increase the number of collagen cross-links within tooth dentin. To evaluate the effects of two cross-linking agents of different concentrations on the UTS of demineralized crown dentin tested parallel and perpendicular to dentinal tubules, the experiment described below was performed. FIG. 6 illustrates the steps of specimen preparation and treatment.
Twenty sound molars were sectioned into 0.5±0.1 mm thick slabs that were further trimmed to 0.5±0.1 mm according to the tubule orientation (parallel-PR or perpendicular-PE). Specimens were demineralized with 10% phosphoric acid and divided into 10 groups according to treatment: control (water solution)/PR; control/PE, 6.5% proanthocyanidin (PA)/PR, 6.5% PA/PE; 0.65% PA/PR; 0.65% PA/PE; 25% glutaraldehyde (GD)/PR; 25% GD/PE; 5% GD/PR; 5% GD/PE. Specimens were kept in their respective solutions for 1 hour. To assess UTS, specimens were subjected to tensile forces at a crosshead speed of 1 mm/min. Statistical analysis was performed using two-way ANOVA and Fisher's PLSD test (p<0.05).

**Q.** Which results are given for O=CCCCC=O [GD, glutaraldehyde]?
**A.** effect on bond strength [1]: no significant effect; increase in the bond strength values [2]: 35%; Ultimate tensile strength, mean ([3]; 4 hours in 0.5% PA, 0.625% GE or 5% GD): 13.1 MPa; Ultimate tensile strength, mean ([3]; 40 hours in 0.5% PA, 0.625% GE or 5% GD): 9.1 MPa; Ultimate tensile strength, pooled data ([3]; pooled over 4 and 40 hours, 0.5% PA, 0.625% GE or 5% GD): 11.1 BC MPa; UTS values compared to the control group (statistics) ([3]; two-way ANOVA, Fisher's PLSD): no statistically significant differences; UTS ([4]; 5% GD, tested Parallel to dentinal tubules): 9.8 ± 1.5^BCD,b MPa; UTS ([4]; 5% GD, tested Perpendicular to dentinal tubules): 15.7 ± 4.9^BCD,a MPa; UTS ([4]; 25% GD, tested Parallel to dentinal tubules): 10.7 ± 2.7^B,b MPa; UTS ([4]; 25% GD, tested Perpendicular to dentinal tubules): 18.6 ± 5.7^B,a MPa
